Test results from US20100093062A1, “TR[…] FOR PERKINSUS SPECIES” (priority 2007, published 2010).
Entries after “also recorded” stand apart in the source; their conditions may differ.

Tested on: Perkinsus proliferation
Experiment: Effect of selectable marker candidates on Perkinsus proliferation (OD600 over time, visual inspection of treated cells)
Type: cell-based, Perkinsus marinus
Details: for position of OD600 curve in FIG. 2: at 15 days, curves ranked top to bottom; for effect on parasite growth / Perkinsus proliferation: FIG. 2, optical density (OD600) as a function of time in days
Description: FIG. 2 is a graph of Optical density (OD600) as a function of time, in days, for various selectable marker candidates for their effect on Perkinsus proliferation. […]
G418 (800 μg/ml) was highly toxic, with visible effects six days after treatment. […] Visual inspection of the treated cells indicated changes in the morphology and cell death. These changes were more evident for G418 and pyrimethamine than with the CAP treatment.

Row | Structure (SMILES) | position of OD600 curve in FIG. 2 (100 μg/ml) | position of OD600 curve in FIG. 2 (400 μg/ml) | time to visible effects after treatment (800 μg/ml) | toxicity to the parasite (800 μg/ml) | position of OD600 curve in FIG. 2 (800 μg/ml) | time to cells dying after treatment (100 and 400 μg/ml) [days] | effect on parasite growth / Perkinsus proliferation | changes in the morphology and cell death, visual inspection of treated cells (compared with the CAP treatment) | effect on parasite growth (lower doses tested, 100 and 400 μg/ml) | position of OD600 curve in FIG. 2 (50 μg/ml) | effect on parasite growth / Perkinsus proliferation (listed as CAP)
1 | CN[C@@H]1[C@@H](O)[C@@H](O[C@@H]2[C@@H](O)[C@H](O[C@H]3O[C@H]([C@@H](C)O)[C@@H](O)[C@H](O)[C@H]3N)[C@@H](N)C[C@H]2N)OC[C@]1(C)O [G418] | lowest curve | seventh highest curve | six | highly toxic | sixth highest curve | 15 | inhibited parasite growth; also recorded: inhibition of Perkinsus proliferation, especially G418 | more evident | still inhibited parasite growth | – | –
2 | O=C(N[C@H](CO)[C@H](O)c1ccc([N+](=O)[O-])cc1)C(Cl)Cl [chloramphenicol] | fourth highest curve | fifth highest curve | – | – | – | – | inhibited parasite growth | – | – | third highest curve | inhibition of Perkinsus proliferation
